Assay results taken from paper PMC10896213, “Identification of the KIF18A alpha-4 helix as a therapeutic target for chromosomally unstable tumor cells” (Frontiers in Molecular Biosciences, 2023).

Target: T1, KIF18A (Homo sapiens, UniProt Q8NI77)
T1 construct: KIF18A (1−417); with pig microtubules (tubulin)
T1 sequence (Q8NI77 1-417): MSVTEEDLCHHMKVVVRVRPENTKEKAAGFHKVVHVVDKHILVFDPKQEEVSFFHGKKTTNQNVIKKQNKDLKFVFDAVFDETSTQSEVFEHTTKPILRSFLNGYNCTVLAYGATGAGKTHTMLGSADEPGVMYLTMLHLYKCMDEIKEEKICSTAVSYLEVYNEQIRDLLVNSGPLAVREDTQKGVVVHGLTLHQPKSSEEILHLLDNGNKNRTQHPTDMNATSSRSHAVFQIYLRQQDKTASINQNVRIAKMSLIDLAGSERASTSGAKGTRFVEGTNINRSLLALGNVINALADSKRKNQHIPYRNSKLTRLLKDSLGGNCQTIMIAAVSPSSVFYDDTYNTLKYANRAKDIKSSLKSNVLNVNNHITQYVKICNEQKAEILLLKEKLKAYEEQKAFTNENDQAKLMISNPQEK
Experiment: microtubule-stimulated ATPase assay (ADP-Glo)
Format: biochemical

IC50: 8.2 nM
SMILES: Cc1cc(NC(=O)c2cnc(NS(=O)(=O)CCO)cc2N2CCC3(CC2)CC3)nc(N2CCC(F)(F)CC2)n1 [Compound 3]
